Test results taken from the kinase profiling compilation of Christmann-Franck et al. (2016).

Tests used:
Assay in all cases: radiometric filter-binding kinase assay, Kinase HotSpot
Conditions in all cases: compound 0.5 µM; ATP 10 µM
PIM1 (human) = PIM1 (human) (UniProt P11309)
MARK3 (human) = MARK3 (human) (UniProt P27448)
MARK1 (human) = MARK1 (human) (UniProt Q9P0L2)
MAPKAPK2 (human) = MAPKAPK2 (human) (UniProt P49137)
CSNK2A2 (human) = CSNK2A2 (human) (UniProt P19784)
CDK2 CCNA2 (human) = CDK2 CCNA2 (human) (UniProt P24941+P20248)
ACVRL1 (human) = ACVRL1 (human) (UniProt P37023)
TAOK3 (human) = TAOK3 (human) (UniProt Q9H2K8)
FRK (human) = FRK (human) (UniProt P42685)
STK39 (human) = STK39 (human) (UniProt Q9UEW8)
IGF1R (human) = IGF1R (human) (UniProt P08069)
CDK4 CCND1 (human) = CDK4 CCND1 (human) (UniProt P24385+P11802)
[1] = molecular target: TYK2 JH1 catalytic (human) (UniProt P29597)
HIPK4 (human) = HIPK4 (human) (UniProt Q8NE63)
GSG2 (human) = GSG2 (human) (UniProt Q8TF76)
NTRK2 (human) = NTRK2 (human) (UniProt Q16620)
GRK6 (human) = GRK6 (human) (UniProt P43250)
FLT3 (human) = FLT3 (human) (UniProt P36888)
EPHA2 (human) = EPHA2 (human) (UniProt P29317)
CDK1 CCNA2 (human) = CDK1 CCNA2 (human) (UniProt P06493+P20248)
MKNK2 (human) = MKNK2 (human) (UniProt Q9HBH9)
OXSR1 (human) = OXSR1 (human) (UniProt O95747)
CSK (human) = CSK (human) (UniProt P41240)
KIT (human) = KIT (human) (UniProt P10721)
ABL2 (human) = ABL2 (human) (UniProt P42684)
CSNK1E (human) = CSNK1E (human) (UniProt P49674)
LCK (human) = LCK (human) (UniProt P06239)
MINK1 (human) = MINK1 (human) (UniProt Q8N4C8)
CSNK1G2 (human) = CSNK1G2 (human) (UniProt P78368)
CHEK2 (human) = CHEK2 (human) (UniProt O96017)
MAP4K2 (human) = MAP4K2 (human) (UniProt Q12851)
NEK4 (human) = NEK4 (human) (UniProt P51957)
EPHB1 (human) = EPHB1 (human) (UniProt P54762)
PRKD1 (human) = PRKD1 (human) (UniProt Q15139)
STK17A (human) = STK17A (human) (UniProt Q9UEE5)
NUAK2 (human) = NUAK2 (human) (UniProt Q9H093)
BRSK2 (human) = BRSK2 (human) (UniProt Q8IWQ3)
PRKCB1 (human) = PRKCB1 (human) (UniProt P05771)
AKT1 (human) = AKT1 (human) (UniProt P31749)
AURKB (human) = AURKB (human) (UniProt Q96GD4)
RPS6KA3 KD1 KD2 (human) = RPS6KA3 KD1 KD2 (human) (UniProt P51812)
PIM3 (human) = PIM3 (human) (UniProt Q86V86)

AKT1 (human), sequence (P31749 whole entry, looked up): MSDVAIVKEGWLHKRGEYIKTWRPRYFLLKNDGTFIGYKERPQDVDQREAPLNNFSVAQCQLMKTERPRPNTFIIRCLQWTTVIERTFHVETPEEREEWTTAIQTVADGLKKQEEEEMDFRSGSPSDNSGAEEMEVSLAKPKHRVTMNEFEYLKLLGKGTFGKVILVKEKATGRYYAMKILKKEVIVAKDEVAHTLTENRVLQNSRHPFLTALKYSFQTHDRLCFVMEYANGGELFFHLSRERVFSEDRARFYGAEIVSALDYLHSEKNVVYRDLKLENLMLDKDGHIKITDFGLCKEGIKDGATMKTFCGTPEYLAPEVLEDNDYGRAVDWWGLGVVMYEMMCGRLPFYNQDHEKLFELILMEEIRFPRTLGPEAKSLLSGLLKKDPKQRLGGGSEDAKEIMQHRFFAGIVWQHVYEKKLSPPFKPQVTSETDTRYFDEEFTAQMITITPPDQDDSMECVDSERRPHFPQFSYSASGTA
HIPK4 (human), sequence (Q8NE63 whole entry, looked up): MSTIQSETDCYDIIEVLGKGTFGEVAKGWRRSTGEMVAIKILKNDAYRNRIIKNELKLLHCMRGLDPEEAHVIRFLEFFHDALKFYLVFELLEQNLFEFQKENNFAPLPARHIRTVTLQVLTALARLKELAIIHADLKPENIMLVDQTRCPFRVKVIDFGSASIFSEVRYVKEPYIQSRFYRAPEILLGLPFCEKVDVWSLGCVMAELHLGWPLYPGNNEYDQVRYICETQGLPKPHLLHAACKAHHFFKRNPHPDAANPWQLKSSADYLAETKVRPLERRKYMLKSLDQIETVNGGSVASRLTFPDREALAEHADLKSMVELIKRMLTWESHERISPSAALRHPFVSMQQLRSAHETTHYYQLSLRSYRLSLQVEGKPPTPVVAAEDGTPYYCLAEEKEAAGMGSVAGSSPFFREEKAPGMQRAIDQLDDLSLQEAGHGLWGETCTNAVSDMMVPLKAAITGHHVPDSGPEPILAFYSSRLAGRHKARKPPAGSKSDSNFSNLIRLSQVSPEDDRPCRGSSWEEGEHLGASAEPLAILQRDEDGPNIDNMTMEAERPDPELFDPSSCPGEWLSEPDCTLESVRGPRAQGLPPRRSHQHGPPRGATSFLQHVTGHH
MARK3 (human), sequence (P27448 whole entry, looked up): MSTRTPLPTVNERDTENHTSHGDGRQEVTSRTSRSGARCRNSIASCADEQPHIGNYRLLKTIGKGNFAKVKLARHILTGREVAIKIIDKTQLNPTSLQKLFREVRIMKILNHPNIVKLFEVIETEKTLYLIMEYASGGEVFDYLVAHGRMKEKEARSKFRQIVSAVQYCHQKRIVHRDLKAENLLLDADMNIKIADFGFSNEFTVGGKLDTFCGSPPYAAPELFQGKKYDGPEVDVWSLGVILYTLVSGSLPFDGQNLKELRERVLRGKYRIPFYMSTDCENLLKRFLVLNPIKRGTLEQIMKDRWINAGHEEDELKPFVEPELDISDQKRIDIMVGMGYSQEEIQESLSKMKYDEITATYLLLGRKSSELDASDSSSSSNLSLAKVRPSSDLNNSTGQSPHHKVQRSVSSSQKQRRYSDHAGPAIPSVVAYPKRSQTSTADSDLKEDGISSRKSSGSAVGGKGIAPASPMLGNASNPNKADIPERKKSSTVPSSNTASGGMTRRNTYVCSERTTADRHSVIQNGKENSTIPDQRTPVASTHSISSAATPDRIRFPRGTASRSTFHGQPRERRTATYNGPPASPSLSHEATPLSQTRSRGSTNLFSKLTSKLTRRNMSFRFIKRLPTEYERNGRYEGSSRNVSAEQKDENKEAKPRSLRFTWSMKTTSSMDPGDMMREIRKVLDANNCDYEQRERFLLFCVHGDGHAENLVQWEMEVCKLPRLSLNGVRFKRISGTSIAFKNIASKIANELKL
CDK1 CCNA2 (human), sequence (P06493 whole entry, looked up): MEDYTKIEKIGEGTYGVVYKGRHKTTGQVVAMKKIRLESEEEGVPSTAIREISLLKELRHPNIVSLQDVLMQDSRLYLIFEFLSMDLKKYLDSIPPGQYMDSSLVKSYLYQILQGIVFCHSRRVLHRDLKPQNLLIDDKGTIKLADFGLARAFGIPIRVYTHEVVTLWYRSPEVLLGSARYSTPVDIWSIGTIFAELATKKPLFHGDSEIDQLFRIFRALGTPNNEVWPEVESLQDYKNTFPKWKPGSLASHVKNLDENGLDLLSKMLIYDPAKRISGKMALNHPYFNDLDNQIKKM
CDK1 CCNA2 (human), sequence (P20248 whole entry, looked up): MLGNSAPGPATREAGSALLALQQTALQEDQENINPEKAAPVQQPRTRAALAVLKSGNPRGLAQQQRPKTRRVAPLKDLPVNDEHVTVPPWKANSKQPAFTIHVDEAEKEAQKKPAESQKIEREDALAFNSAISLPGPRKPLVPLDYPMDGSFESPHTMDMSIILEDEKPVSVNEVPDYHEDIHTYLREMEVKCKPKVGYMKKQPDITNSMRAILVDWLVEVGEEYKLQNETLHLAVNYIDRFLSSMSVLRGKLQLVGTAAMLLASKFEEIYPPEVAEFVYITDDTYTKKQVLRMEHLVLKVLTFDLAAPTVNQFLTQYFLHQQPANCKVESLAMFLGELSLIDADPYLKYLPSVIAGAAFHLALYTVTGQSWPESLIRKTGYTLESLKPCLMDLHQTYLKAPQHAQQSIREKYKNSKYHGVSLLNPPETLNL
KIT (human), sequence (P10721 whole entry, looked up): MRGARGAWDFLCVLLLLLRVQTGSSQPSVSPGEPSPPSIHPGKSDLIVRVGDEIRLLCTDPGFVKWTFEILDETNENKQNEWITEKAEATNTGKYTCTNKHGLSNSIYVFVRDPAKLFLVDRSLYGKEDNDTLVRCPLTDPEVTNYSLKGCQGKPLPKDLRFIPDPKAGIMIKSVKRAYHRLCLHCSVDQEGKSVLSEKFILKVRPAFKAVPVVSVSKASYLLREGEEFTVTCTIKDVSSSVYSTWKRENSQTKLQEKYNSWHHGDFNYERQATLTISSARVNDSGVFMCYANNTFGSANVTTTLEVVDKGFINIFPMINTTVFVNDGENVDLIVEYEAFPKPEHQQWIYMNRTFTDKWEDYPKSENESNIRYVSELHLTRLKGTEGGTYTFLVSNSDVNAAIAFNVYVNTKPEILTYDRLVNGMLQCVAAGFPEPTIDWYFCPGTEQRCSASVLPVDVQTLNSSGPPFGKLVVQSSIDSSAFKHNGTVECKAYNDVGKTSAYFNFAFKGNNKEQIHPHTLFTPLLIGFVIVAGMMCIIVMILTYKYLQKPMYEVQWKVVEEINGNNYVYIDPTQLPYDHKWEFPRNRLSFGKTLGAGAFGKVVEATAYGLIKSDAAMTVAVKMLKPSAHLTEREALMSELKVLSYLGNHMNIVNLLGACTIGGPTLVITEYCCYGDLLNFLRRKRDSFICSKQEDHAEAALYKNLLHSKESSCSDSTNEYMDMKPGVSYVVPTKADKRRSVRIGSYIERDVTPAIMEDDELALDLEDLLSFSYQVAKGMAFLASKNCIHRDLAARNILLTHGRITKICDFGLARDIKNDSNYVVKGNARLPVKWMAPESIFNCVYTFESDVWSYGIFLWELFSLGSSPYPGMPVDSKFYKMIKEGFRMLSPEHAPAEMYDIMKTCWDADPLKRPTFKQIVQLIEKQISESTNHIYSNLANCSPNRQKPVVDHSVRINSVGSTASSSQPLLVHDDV
IGF1R (human), sequence (P08069 whole entry, looked up): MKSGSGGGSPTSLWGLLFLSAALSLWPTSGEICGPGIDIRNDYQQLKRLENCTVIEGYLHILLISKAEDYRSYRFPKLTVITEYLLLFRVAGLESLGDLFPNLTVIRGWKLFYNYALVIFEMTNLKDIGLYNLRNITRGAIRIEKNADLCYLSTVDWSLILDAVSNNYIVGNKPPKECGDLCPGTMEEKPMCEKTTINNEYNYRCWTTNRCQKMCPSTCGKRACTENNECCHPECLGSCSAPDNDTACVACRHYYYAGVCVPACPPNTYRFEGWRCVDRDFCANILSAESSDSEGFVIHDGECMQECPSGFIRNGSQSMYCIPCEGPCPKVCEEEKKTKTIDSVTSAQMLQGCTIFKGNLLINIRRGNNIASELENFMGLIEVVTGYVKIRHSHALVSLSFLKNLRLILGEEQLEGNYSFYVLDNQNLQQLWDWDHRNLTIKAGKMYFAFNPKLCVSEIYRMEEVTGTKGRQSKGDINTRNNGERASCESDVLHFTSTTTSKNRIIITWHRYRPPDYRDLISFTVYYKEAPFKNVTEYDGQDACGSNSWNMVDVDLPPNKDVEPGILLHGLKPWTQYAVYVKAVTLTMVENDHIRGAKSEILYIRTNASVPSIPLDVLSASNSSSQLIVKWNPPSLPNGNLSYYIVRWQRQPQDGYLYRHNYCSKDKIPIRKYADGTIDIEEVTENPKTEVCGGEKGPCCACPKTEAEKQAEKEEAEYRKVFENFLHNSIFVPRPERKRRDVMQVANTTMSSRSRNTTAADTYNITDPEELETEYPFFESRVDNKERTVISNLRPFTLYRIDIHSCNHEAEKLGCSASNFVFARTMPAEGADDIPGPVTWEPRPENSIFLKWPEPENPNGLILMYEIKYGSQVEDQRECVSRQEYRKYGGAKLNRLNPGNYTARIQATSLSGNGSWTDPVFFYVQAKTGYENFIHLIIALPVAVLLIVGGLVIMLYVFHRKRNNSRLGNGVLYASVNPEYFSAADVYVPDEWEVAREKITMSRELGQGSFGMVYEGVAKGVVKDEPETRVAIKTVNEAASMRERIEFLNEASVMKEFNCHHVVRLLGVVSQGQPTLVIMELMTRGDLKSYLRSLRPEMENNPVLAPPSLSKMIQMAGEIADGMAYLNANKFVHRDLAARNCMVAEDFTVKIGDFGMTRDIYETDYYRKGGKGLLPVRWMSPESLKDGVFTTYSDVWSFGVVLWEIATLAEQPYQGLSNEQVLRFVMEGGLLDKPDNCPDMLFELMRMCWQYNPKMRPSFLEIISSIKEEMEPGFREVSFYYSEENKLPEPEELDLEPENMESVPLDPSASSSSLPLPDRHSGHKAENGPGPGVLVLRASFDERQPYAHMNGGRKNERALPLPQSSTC
CDK2 CCNA2 (human), sequence (P20248 whole entry, looked up, other chains not shown): as the sequence (P20248 whole entry, looked up) above

## O=C1Nc2ccccc2/C1=C1/Nc2ccccc2/C1=N\OCCC(O)CO (stereo unspecified)
PIM1 (human)
  residual activity: 59.7%
MARK3 (human)
  residual activity: 75.2%
MARK1 (human)
  residual activity: 60.5%
MAPKAPK2 (human)
  residual activity: 98.4%
CSNK2A2 (human)
  residual activity: 28.3%
CDK2 CCNA2 (human)
  residual activity: 15.5%
ACVRL1 (human)
  residual activity: 103%
TAOK3 (human)
  residual activity: 55.4%
FRK (human)
  residual activity: 49.7%
STK39 (human)
  residual activity: 79.3%
IGF1R (human)
  residual activity: 39.1%
CDK4 CCND1 (human)
  residual activity: 96.4%
[1]
  residual activity: 9.42%
HIPK4 (human)
  residual activity: 108%
GSG2 (human)
  residual activity: 32.8%
NTRK2 (human)
  residual activity: 1.62%
GRK6 (human)
  residual activity: 53.1%
FLT3 (human)
  residual activity: 1.07%
EPHA2 (human)
  residual activity: 65.3%
CDK1 CCNA2 (human)
  residual activity: 56.7%
MKNK2 (human)
  residual activity: 72.4%
OXSR1 (human)
  residual activity: 98.6%
CSK (human)
  residual activity: 86.3%
KIT (human)
  residual activity: 44.8%
ABL2 (human)
  residual activity: 38.5%
CSNK1E (human)
  residual activity: 43.2%
LCK (human)
  residual activity: 29.7%
MINK1 (human)
  residual activity: 21%
CSNK1G2 (human)
  residual activity: 85.2%
CHEK2 (human)
  residual activity: 27%
MAP4K2 (human)
  residual activity: 51.7%
NEK4 (human)
  residual activity: 83.9%
EPHB1 (human)
  residual activity: 65.9%
PRKD1 (human)
  residual activity: 72.7%
STK17A (human)
  residual activity: 22.5%
NUAK2 (human)
  residual activity: 55.1%
BRSK2 (human)
  residual activity: 33.3%
PRKCB1 (human)
  residual activity: 93.6%
AKT1 (human)
  residual activity: 95.6%
AURKB (human)
  residual activity: 27.4%
RPS6KA3 KD1 KD2 (human)
  residual activity: 18.3%
PIM3 (human)
  residual activity: 58.5%

## O=C1NC(=O)/C(=C\c2ccc3nccnc3c2)S1
PIM1 (human)
  residual activity: 61.7%
MARK3 (human)
  residual activity: 94.3%
MARK1 (human)
  residual activity: 96.2%
MAPKAPK2 (human)
  residual activity: 97.7%
CSNK2A2 (human)
  residual activity: 3.08%
CDK2 CCNA2 (human)
  residual activity: 99.7%
ACVRL1 (human)
  residual activity: 107%
TAOK3 (human)
  residual activity: 93.1%
FRK (human)
  residual activity: 91.7%
STK39 (human)
  residual activity: 104%
IGF1R (human)
  residual activity: 92%
CDK4 CCND1 (human)
  residual activity: 94.4%
[1]
  residual activity: 85.2%
HIPK4 (human)
  residual activity: 95%
GSG2 (human)
  residual activity: 38.8%
NTRK2 (human)
  residual activity: 90.7%
GRK6 (human)
  residual activity: 97%
FLT3 (human)
  residual activity: 95.2%
EPHA2 (human)
  residual activity: 99.9%
CDK1 CCNA2 (human)
  residual activity: 90.7%
MKNK2 (human)
  residual activity: 98.2%
OXSR1 (human)
  residual activity: 98.4%
CSK (human)
  residual activity: 86.3%
KIT (human)
  residual activity: 87.5%
ABL2 (human)
  residual activity: 96.8%
CSNK1E (human)
  residual activity: 92.3%
LCK (human)
  residual activity: 98.6%
MINK1 (human)
  residual activity: 88.3%
CSNK1G2 (human)
  residual activity: 83.4%
CHEK2 (human)
  residual activity: 90.3%
MAP4K2 (human)
  residual activity: 86.1%
NEK4 (human)
  residual activity: 93.1%
EPHB1 (human)
  residual activity: 93.4%
PRKD1 (human)
  residual activity: 94.8%
STK17A (human)
  residual activity: 94.6%
NUAK2 (human)
  residual activity: 76%
BRSK2 (human)
  residual activity: 90.9%
PRKCB1 (human)
  residual activity: 96.9%
AKT1 (human)
  residual activity: 98.3%
AURKB (human)
  residual activity: 101%
RPS6KA3 KD1 KD2 (human)
  residual activity: 101%
PIM3 (human)
  residual activity: 67.3%

## Oc1ccc(Nc2nc(-c3ccc(Cl)cc3)cs2)cc1
PIM1 (human)
  residual activity: 103%
MARK3 (human)
  residual activity: 95.3%
MARK1 (human)
  residual activity: 93.7%
MAPKAPK2 (human)
  residual activity: 100%
CSNK2A2 (human)
  residual activity: 96.9%
CDK2 CCNA2 (human)
  residual activity: 98.6%
ACVRL1 (human)
  residual activity: 103%
TAOK3 (human)
  residual activity: 101%
FRK (human)
  residual activity: 106%
STK39 (human)
  residual activity: 94.2%
IGF1R (human)
  residual activity: 102%
CDK4 CCND1 (human)
  residual activity: 108%
[1]
  residual activity: 110%
HIPK4 (human)
  residual activity: 101%
GSG2 (human)
  residual activity: 100%
NTRK2 (human)
  residual activity: 107%
GRK6 (human)
  residual activity: 100%
FLT3 (human)
  residual activity: 99%
EPHA2 (human)
  residual activity: 105%
CDK1 CCNA2 (human)
  residual activity: 91.2%
MKNK2 (human)
  residual activity: 84.5%
OXSR1 (human)
  residual activity: 88.8%
CSK (human)
  residual activity: 101%
KIT (human)
  residual activity: 92%
ABL2 (human)
  residual activity: 93.4%
CSNK1E (human)
  residual activity: 103%
LCK (human)
  residual activity: 99.8%
MINK1 (human)
  residual activity: 103%
CSNK1G2 (human)
  residual activity: 91.8%
CHEK2 (human)
  residual activity: 97.9%
MAP4K2 (human)
  residual activity: 103%
NEK4 (human)
  residual activity: 104%
EPHB1 (human)
  residual activity: 105%
PRKD1 (human)
  residual activity: 96.8%
STK17A (human)
  residual activity: 98.7%
NUAK2 (human)
  residual activity: 137%
BRSK2 (human)
  residual activity: 101%
PRKCB1 (human)
  residual activity: 101%
AKT1 (human)
  residual activity: 106%
AURKB (human)
  residual activity: 102%
RPS6KA3 KD1 KD2 (human)
  residual activity: 107%
PIM3 (human)
  residual activity: 114%
